Data: paper PMC9911596 (Nature Communications, 2023)

Target: T1, Vtc1/Vtc3/Vtc4 complex (VTC complex) (Saccharomyces cerevisiae, UniProt P47075+Q02725, Q02725:K126A/Q02725:K129A/Q02725:K133A)
T1 construct: full-length subunits co-expressed in Expi293F; Vtc1 C-terminal HA, Vtc3 N-terminal 3xFlag, Vtc4 C-terminal 2xStrep; detergent-purified; 3:1:1 pentamer; with Vacuolar transporter chaperone complex subunit 1
T1 sequence (P47075 1-721): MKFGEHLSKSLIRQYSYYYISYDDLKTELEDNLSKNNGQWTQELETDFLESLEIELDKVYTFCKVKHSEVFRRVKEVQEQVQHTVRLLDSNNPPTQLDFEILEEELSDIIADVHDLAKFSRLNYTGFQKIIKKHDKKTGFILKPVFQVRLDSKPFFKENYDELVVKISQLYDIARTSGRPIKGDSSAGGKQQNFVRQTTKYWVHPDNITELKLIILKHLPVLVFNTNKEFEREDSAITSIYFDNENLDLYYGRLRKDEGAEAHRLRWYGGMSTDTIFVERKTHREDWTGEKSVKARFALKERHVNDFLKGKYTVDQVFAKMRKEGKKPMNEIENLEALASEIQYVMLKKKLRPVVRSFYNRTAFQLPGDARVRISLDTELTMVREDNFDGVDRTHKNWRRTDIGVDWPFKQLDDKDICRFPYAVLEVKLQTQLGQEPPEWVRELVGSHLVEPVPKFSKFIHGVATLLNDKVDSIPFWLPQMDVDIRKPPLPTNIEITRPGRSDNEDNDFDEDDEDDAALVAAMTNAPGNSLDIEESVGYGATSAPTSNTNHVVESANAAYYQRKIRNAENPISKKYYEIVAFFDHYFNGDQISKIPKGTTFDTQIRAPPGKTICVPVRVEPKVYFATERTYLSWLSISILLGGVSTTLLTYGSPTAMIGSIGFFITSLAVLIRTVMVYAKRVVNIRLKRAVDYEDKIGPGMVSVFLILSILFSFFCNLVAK
T1 sequence (Q02725 1-835 K126A/K129A/K133A): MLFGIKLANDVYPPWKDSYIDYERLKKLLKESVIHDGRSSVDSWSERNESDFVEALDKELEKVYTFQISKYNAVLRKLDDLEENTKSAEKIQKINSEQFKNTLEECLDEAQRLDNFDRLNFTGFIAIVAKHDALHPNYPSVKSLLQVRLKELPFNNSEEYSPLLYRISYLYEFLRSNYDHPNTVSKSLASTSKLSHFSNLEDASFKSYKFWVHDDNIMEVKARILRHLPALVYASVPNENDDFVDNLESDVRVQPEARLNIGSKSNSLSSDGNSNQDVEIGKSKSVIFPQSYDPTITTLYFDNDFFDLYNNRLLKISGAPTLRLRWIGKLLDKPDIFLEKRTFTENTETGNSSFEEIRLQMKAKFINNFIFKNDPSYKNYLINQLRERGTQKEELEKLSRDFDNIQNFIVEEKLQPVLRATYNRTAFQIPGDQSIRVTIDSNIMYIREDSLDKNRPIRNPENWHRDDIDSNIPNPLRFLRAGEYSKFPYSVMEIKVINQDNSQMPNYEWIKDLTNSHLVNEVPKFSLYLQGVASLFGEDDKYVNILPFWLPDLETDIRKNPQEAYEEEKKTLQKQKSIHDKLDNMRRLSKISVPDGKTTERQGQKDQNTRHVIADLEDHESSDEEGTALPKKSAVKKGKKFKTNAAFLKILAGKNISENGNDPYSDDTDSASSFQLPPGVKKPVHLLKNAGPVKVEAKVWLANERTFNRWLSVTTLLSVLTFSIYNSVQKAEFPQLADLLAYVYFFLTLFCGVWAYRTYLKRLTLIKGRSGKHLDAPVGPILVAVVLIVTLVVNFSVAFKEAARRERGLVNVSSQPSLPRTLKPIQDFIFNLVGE
T1 sequence (P40046 2-129 partner): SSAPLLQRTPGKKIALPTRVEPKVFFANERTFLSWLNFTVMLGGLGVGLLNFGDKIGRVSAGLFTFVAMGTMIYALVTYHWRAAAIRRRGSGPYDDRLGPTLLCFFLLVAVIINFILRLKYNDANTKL
Assay: polyP synthesis, TBE-PAGE
Format: biochemical
Conditions: activator; 15 mM ATP, 10 mM MgCl2, 1 mM MnCl2, 0.5 mM pyrophosphate, 27 °C, 4 h; SPX KSC mutant

`O=P(O)(O)O[C@H]1[C@H](OP(=O)(O)O)[C@@H](OP(=O)(O)O)[C@H](OP(=O)(O)O)[C@@H](OP(=O)(O)O)[C@H]1OP(=O)(O)O` [InsP6] was tested, and the “polyP synthesis, TBE-PAGE” value was “residues had little effect on polyP synthesis”.
